Measurements from publication PMC6277767, “Broad and Region-Specific Impacts of the Synthetic Cannabinoid CP 55,940 in Adolescent and Adult Female Mouse Brains” (Frontiers in Molecular Neuroscience, 2018).

Test system: CD1 female mouse brain lipidome
Assay: Brain-region lipid levels (HPLC/MS/MS lipidomics) 2 h after single i.p. 3 mg/kg CP 55,940 vs vehicle
Format: in vivo
Design: N-arachidonoyl phenylalanine level, Mean / N-stearoyl tryptophan level, Mean / N-stearoyl proline level, Mean / N-stearoyl leucine level, Mean / N-stearoyl phenylalanine level, Mean / N-stearoyl serine level, Mean / N-stearoyl methionine level, Mean: unit: moles per gram
Settings: cortex
Method: The Bloomington Institutional Animal Care and Use Committee of Indiana University reviewed and approved the animal procedures. Female mice from the CD1 strain were utilized to match our study examining THC’s effects on the brain lipidome ([Leishman et al., 2018]). Mice were given a single i.p. injection of either 3 mg/kg CP or 1:1:18 cremophor:ethanol:saline vehicle (please refer to the section “3 mg/kg CP Is Relevant for Synthetic Cannabinoid Abuse and Has Stronger Effects on the Female Mouse Brain Lipidome During Adolescence” for a justification of dose and use of female mice). Three different age groups were given injections: PND 35 and PND 50 adolescents, and adult mice (PND 113). At least eight mice in each age group received CP and at least eight received vehicle. Matching the THC study time course ([Leishman et al., 2018]), mice were sacrificed via rapid decapitation 2 h after injection. Brains were immediately removed and flash-frozen in liquid nitrogen, and then stored at -80°C until dissections were performed. Brains were dissected on an ice-cold dissection plate into the following regions: STR, HIPP, CER, THAL, CTX, HYP, MID, and STEM. These abbreviations for these brain areas will be used exclusively when discussing the results generated by these specific dissections. Each dissected area was immediately placed in liquid nitrogen and then stored at -80°C until used for lipid extraction.
Tissue extracts were performed as previously described ([Bradshaw et al., 2006]; [Stuart et al., 2013]; [Raboune et al., 2014]; [Leishman et al., 2016a],[b], [2017], [2018]). First, samples were shock frozen in liquid nitrogen, weighed, and transferred to a centrifuge tube. The mass of the largest sample was multiplied by 50 to determine how many milliliters of HPLC-grade methanol (Fisher, Fair Lawn, NJ, United States) to add. Then, samples were spiked with 500 pmol deuterium-labeled NAGly (d8NAGly; Cayman Chemical, Ann Arbor, MI, United States). Samples were placed on ice in darkness for 2 h then individually homogenized and centrifuged at 19,000 × g for 20 min at 20°C. Supernatants were diluted with HPLC water (purified in house) to make a solution of 75% water, 25% supernatant. Lipids were partially purified on C18 solid phase extraction columns (Agilent, Palo Alto, CA, United States). A series of four elutions with 1.5 mL of 60%, 75%, 85%, and 100% methanol were collected ([Stuart et al., 2013]; [Leishman et al., 2016a],[b], [2018]).
As previously described ([Bradshaw et al., 2006]; [Tan et al., 2006]; [Smoum et al., 2010]; [Stuart et al., 2013]; [Tortoriello et al., 2013]; [Raboune et al., 2014]; [Leishman et al., 2016a],[b], [2017], [2018]), samples were analyzed using an Applied Biosystems API 3000 triple quadrupole mass spectrometer with electrospray ionization (Foster City, CA, United States). Using an Agilent XDB-C18 reversed phase analytical column and optimized mobile phase gradients, 20 μL from each elution were chromatographed. Two Shimadzu 10ADvp pumps (Columbia, MD, United States) provided the pressure for gradient elution. Mobile phase A: 20% methanol, 80% water (v/v) and 1 mM ammonium acetate (Sigma, St. Louis, MO, United States). Mobile phase B: 100% methanol, 1 mM ammonium acetate. Every method run began with 0% mobile phase B, reached 100% mobile phase B flowing at 0.2 mL/min, and gradually returned to 0% mobile phase B.
This screening library will be referred to as the lipidome when discussing data from this study. HPLC/MS/MS data were analyzed using Analyst software (Applied Biosystems) ([Bradshaw et al., 2006]; [Tan et al., 2006]; [Stuart et al., 2013]; [Tortoriello et al., 2013]; [Raboune et al., 2014]; [Leishman et al., 2016a],[b], [2017], [2018]). Chromatograms (Supplementary Figure 3) were generated by determining the retention time of analytes from the analytical column with a [M-1] or [M+1] parent peak and a fragmentation peak corresponding to the programmed values. […]

[1] = PND 50 female mice, 3mg/kg CP 55,940
[2] = WT adult female mice, 3mg/kg CP 55,940

## CCCCCCC(C)(C)c1ccc([C@@H]2C[C@H](O)CC[C@H]2CCCO)c(O)c1 [CP 55,940]
[1]
  N-palmitoyl leucine level, Mean: 1.98E-12
  N-palmitoyl methionine level, Mean: 1.01E-12
  N-palmitoyl phenylalanine level, Mean: 1.98E-12
  N-palmitoyl proline level, Mean: BDL
  N-palmitoyl serine level, Mean: 4.17E-11
  N-palmitoyl tryptophan level, Mean: BDL
  N-palmitoyl tyrosine level, Mean: 6.65E-13
  N-palmitoyl valine level, Mean: 3.13E-13
  N-stearoyl GABA level, Mean: 1.55E-11
  N-stearoyl alanine level, Mean: 3.67E-12
  N-stearoyl ethanolamine level, Mean: 2.8E-12
  N-stearoyl glycine level, Mean: 1.45E-12
  N-stearoyl leucine level, Mean: 2.21E-12
  N-stearoyl methionine level, Mean: 1.13E-12
  N-stearoyl phenylalanine level, Mean: 2.99E-12
  N-stearoyl proline level, Mean: BDL
  N-stearoyl serine level, Mean: 3.75E-11
  N-stearoyl tryptophan level, Mean: BDL
  N-stearoyl tyrosine level, Mean: 2.52E-13
  Oleic acid level, Mean: 1.6E-09
  PGE2 level, Mean: 1.58E-10
  PhosphoLEA level, Mean: 3.22E-12
  THC level, Mean: BDL
[2]
  N-arachidonoyl GABA level, Mean: 1.28E-11
  N-arachidonoyl alanine level, Mean: 1.09E-12
  N-arachidonoyl ethanolamine level, Mean: 2.77E-11
  N-arachidonoyl glycine level, Mean: 1.07E-12
  N-arachidonoyl phenylalanine level, Mean: 5.77E-14
  N-docosahexaenoyl GABA level, Mean: 6.57E-12
  N-docosahexaenoyl ethanolamine level, Mean: 2.54E-11
  N-docosahexaenoyl glycine level, Mean: 8.32E-14
  N-docosahexaenoyl leucine level, Mean: 8.03E-13
  N-docosahexaenoyl phenylalanine level, Mean: 3E-14
  N-linoleoyl GABA level, Mean: 4.08E-12
  N-linoleoyl ethanolamine level, Mean: 2.93E-11
  N-linoleoyl glycine level, Mean: 5.03E-14
  N-linoleoyl leucine level, Mean: 9.31E-14
  N-oleoyl GABA level, Mean: 9.86E-12
  N-oleoyl alanine level, Mean: 2.22E-12
  N-oleoyl ethanolamine level, Mean: 1.38E-10
  N-oleoyl glycine level, Mean: 2.9E-13
  N-oleoyl leucine level, Mean: 7.57E-13
  N-oleoyl phenylalanine level, Mean: 3.2E-13
  N-palmitoyl GABA level, Mean: 1.4E-11
  N-palmitoyl alanine level, Mean: 2.07E-12
  N-palmitoyl ethanolamine level, Mean: 3.62E-11
  N-palmitoyl glycine level, Mean: 9.43E-13
  N-palmitoyl leucine level, Mean: 1.16E-12
  N-palmitoyl methionine level, Mean: 2.58E-12
  N-palmitoyl phenylalanine level, Mean: 2.56E-13
  N-stearoyl GABA level, Mean: 1.05E-11
  N-stearoyl alanine level, Mean: 3.38E-12
  N-stearoyl ethanolamine level, Mean: 3.18E-11
  N-stearoyl glycine level, Mean: 1.95E-12
  N-stearoyl leucine level, Mean: 1.32E-12
  N-stearoyl methionine level, Mean: 3.92E-13
  N-stearoyl phenylalanine level, Mean: 1.71E-13
PND 35, 3 mg/kg CP 55,940
  2-palmitoyl glycerol Direction (rel to Veh): ↑
  2-palmitoyl glycerol, Magnitude (x Veh level): 1.57 x Veh level
  6-ketoPGF1α Direction (rel to Veh): ↓
  6-ketoPGF1α Magnitude (x Veh level): 0.68 x Veh level
  N-arachidonoyl GABA Direction (rel to Veh): ↓
  N-arachidonoyl GABA Magnitude (x Veh level): 0.83 x Veh level
  N-arachidonoyl alanine Direction (rel to Veh): ↓
  N-arachidonoyl alanine Magnitude (x Veh level): 0.77 x Veh level
  N-arachidonoyl glycine Direction (rel to Veh): ↓
  N-arachidonoyl glycine Magnitude (x Veh level): 0.75 x Veh level
  N-arachidonoyl methionine Direction (rel to Veh): ↓
  N-arachidonoyl methionine, Magnitude (x Veh level): 0.60 x Veh level
  N-arachidonoyl phenylalanine Direction (rel to Veh): ↓
  N-arachidonoyl phenylalanine, Magnitude (x Veh level): 0.76 x Veh level
  N-arachidonoyl serine Direction (rel to Veh): ↓
  N-arachidonoyl serine Magnitude (x Veh level): 0.75 x Veh level
  N-arachidonoyl taurine Direction (rel to Veh): ↓
  N-arachidonoyl taurine Magnitude (x Veh level): 0.83 x Veh level
  N-arachidonoyl tyrosine Direction (rel to Veh): ↓
  N-arachidonoyl tyrosine, Magnitude (x Veh level): 0.73 x Veh level
  N-docosahexaenoyl GABA Direction (rel to Veh): ↓
  N-docosahexaenoyl GABA Magnitude (x Veh level): 0.88 x Veh level
  N-docosahexaenoyl glycine Direction (rel to Veh): ↓
  N-docosahexaenoyl glycine Magnitude (x Veh level): 0.78 x Veh level
  N-docosahexaenoyl leucine Direction (rel to Veh): ↑
  N-docosahexaenoyl leucine Magnitude (x Veh level): 1.52 x Veh level
  N-docosahexaenoyl serine Direction (rel to Veh): ↓
  N-docosahexaenoyl serine Magnitude (x Veh level): 0.62 x Veh level
  N-docosahexaenoyl valine Direction (rel to Veh): ↑
  N-docosahexaenoyl valine Magnitude (x Veh level): 1.37 x Veh level
  N-linoleoyl GABA Direction (rel to Veh): ↓
  N-linoleoyl GABA Magnitude (x Veh level): 0.88 x Veh level
  N-linoleoyl glycine Direction (rel to Veh): ↓
  N-linoleoyl glycine Magnitude (x Veh level): 0.69 x Veh level
  N-oleoyl GABA Direction (rel to Veh): ↓
  N-oleoyl GABA Magnitude (x Veh level): 0.81 x Veh level
  N-oleoyl alanine Direction (rel to Veh): ↓
  N-oleoyl alanine Magnitude (x Veh level): 0.75 x Veh level
  N-oleoyl glycine Direction (rel to Veh): ↓
  N-oleoyl glycine Magnitude (x Veh level): 0.89 x Veh level
  N-oleoyl leucine Direction (rel to Veh): ↑
  N-oleoyl leucine Magnitude (x Veh level): 1.22 x Veh level
  N-oleoyl methionine Direction (rel to Veh): ↓
  N-oleoyl methionine, Magnitude (x Veh level): 0.67 x Veh level
  N-oleoyl valine Direction (rel to Veh): ↑
